Reference: patent publication US10153510B2, “Non-aqueous redox flow batteries including 3,7-perfluoroalkylated phenothiazine derivatives” (University of Kentucky Research Foundation, priority 2014, dated 2018)
In brackets after ≈: the same amount, converted by molar mass. Several values for one entry are separate records, joined by “and”; a condition that tells them apart may be missing. Identical values can stand only once. Like-named read-outs stand apart in the source and are kept apart here.

Assays:
[1] = Stability rating of phenothiazine derivatives (Table 2 compilation); format: physicochemical
Source text: (§1) Table 2 includes a compilation of data related to phenothiazine derivatives overcharge data of phenothiazine compounds as well as whether the compounds are practical for use in redox flow batteries. Some phenothiazine derivatives have solubility and stability sufficient for overcharge protection, they are not sufficiently soluble to be practical for redox flow applications. As exemplified in Table 2, EPT and DClEPT are practical for overcharge protection but are not practical for redox flow.
(§2) The data includes overcharge data at 100% overcharge for EPT, DBrEPT, DClEPT, BCF3EPT and DCNEPT from Ergun, et al. Chem. Comm., 2014, 50, 5339-5341. (30) Overcharge data at constant overcharge for EPT and BCF3EPT is derived from the studies described in Kaur et al., J. Materials Chemistry A, 2014, 2, 18190-18193. (29) Overcharge data at 100% overcharge for PT, MPT and EPT provided in Table 2 was derived from studies described in Narayana et al. ChemPhysChem, 2015, 16, 1179-1189. (32) Overcharge results for BCF3CF2EPT and BCF3(4-CF3C6H4)PT are provided in FIGS. 10 and 11, respectively.

[2] = Cyclic voltammetry, half wave redox potentials; format: physicochemical; details: 20 mV/s; for Low potential event vs. Li+/0: 5 mM analyte in 0.2 M LiBF4 in PC; for High potential event vs. Li+/0: 5 mM in 0.2 M LiBF4 in PC, (a) irreversible oxidation potential estimated from forward wave and estimated reverse wave
Protocol: (§3) Electrochemical experiments were performed in an argon-filled glovebox at room temperature. Cyclic voltammetry (CV) measurements were performed in a three-electrode cell with a 3 mm diameter glassy carbon working electrode, Pt wire counter electrode, and Li foil reference electrode; voltammograms were taken of 0.2 M LiBF4 in PC containing 5 mM analyte using a CH Instruments 605E potentiostat. For UV-vis spectra of neutral compounds, catholytes were dissolved at 0.2 mM or 5 mM in 0.2 M LiBF4 in PC in glovebox and were removed in special optical glass cuvettes (Starna) after sealing with Teflon caps. The solutions were subsequently monitored for 5 h on an Agilent 8453 diode-array spectrometer.
Cyclic voltammetry was used to characterize the electrochemical behavior of BCF3EPT and to characterize DBBB and TMeQ for comparison with reported data. The individual redox events for these electro-active materials can be used to estimate the open-circuit voltage (OCV) of an ORFB containing each catholyte-anolyte pair. LiBF4 (0.2M) was used in propylene carbonate (PC) for these experiments to allow for direct comparison with the previously reported DBBB/TMeQ battery. The voltammograms of BCF3EPT show a reversible first oxidation at a potential of 3.9 V vs. Li+/0, which corresponds to generation of the radical cation, followed by an irreversible second oxidation at ca. 4.4 V vs. Li+/0 (FIG. 2a) corresponding to formation of the dication. […] No peaks corresponding to the reduction of the neutral compounds was observed during the anodic scans of BC3EPT and DBBB in this electrolyte. […] The redox potentials of BCF3EPT and DBBB are similar, thus it is contemplated that they will give similar cell voltages when coupled with TMeQ in an ORFB.

[3] = Maximum solubility of electro-active species in 0.2 M LiBF4 in PC; format: physicochemical; details: organic solvent or mixture, thermodynamic from solid, room temperature
Protocol: as §3
To study the behavior of the new catholyte BCF3EPT relative to DBBB, a set of batteries with the same concentration of electro-active species as the reported DBBB/TMeQ battery (0.05 M), as well as with the highest concentration possible for all three species, were identified for comparison. The maximum solubilities for DBBB, TMeQ and BCF3EPT in 0.2 M LiBF4 in PC were ca. 0.18 M, 0.37 M, and 1.2 M, respectively. […] Batteries were also fabricated at the highest concentration possible for BCF3EPT and TMeQ (0.35 M), beyond that which was possible for DBBB. By this measure, two sets of batteries were able to be tested at the same concentrations, including one near the limiting concentration of DBBB, and a third that allowed for analysis of a battery near the solubility limit of TMeQ.

[4] = Solubility of phenothiazine derivatives (Table 2 compilation); format: physicochemical; details: electrolyte not stated
Source text: as §1, §2

[5] = UV-vis stability of neutral and radical-cation forms (bulk electrolysis); format: physicochemical; details: for stability of neutral compound by UV-vis: 0.2 mM and 5 mM in LiBF4/PC, over 5 h
Protocol: as §3
Bulk electrolysis experiments were performed at 5 mM analyte in 0.2 M LiBF4 in PC with a Pt coiled-wire working electrode and a Li foil reference electrode, as well as a Pt wire counter electrode suspended in solution in a separate fitted glass tube. Electrolysis potentials were applied for 84 min in the glovebox, after which the solutions were diluted and removed from the glovebox in special optical glass cuvettes (Starna) sealed with Teflon caps. The solutions were subsequently monitored for 5 hours on an Agilent 8453 diode-array spectrometer.
Additionally, a compound that is stable in ambient conditions may be sensitive to electrolyte components, as was previously observed for a phenothiazine derivative with a tert-butyl group at the N position.(31) To compare the stability of the neutral and radical-cation forms of BCF3EPT to those of DBBB, UV-vis spectra were collected for both of the oxidation states of both compounds in LiBF4/PC. […] To simulate the charged species of each catholyte, the radical cation was generated by bulk electrolysis.

[6] = 1.2 M LiPF6 in EC/EMC; cited from earlier work
[7] = organic solvent or mixture, read-out: Solubility

CCN1c2ccc(C#N)cc2Sc2cc(C#N)ccc21 [BCF3(4-CF3C6H4)PT]
Stability [1]: High

CCN1c2ccc(C(F)(F)C(F)(F)F)cc2Sc2cc(C(F)(F)C(F)(F)F)ccc21 [BCF3CF2EPT]
Stability [1]: High

CCN1c2ccc(C(F)(F)F)cc2Sc2cc(C(F)(F)F)ccc21 [BCF3EPT, 3,7-bis(trifluoromethyl)-N-ethylphenothiazine]
Low potential event vs. Li+/0 [2]: 3.9 V | solubility at 1 h [3]: ~1200 mM (≈ 436 mg/mL) | Solubility [4, 7]: 1500 to 2000 mM (≈ 545 to 727 mg/mL) | Stability [1]: high | stability of neutral compound by UV-vis [5]: neither compound showed measurable signs of change | stability of radical cation (UV-vis, comparison) ([5]; 0.2 M LiBF4 in PC, 5 h period): significantly more stable | stability relative to DDB [6]: higher stability

COCCOc1cc(C(C)(C)C)c(OCCOC)cc1C(C)(C)C [DBBB, 2,5-di-tert-butyl-1,4-bis(2-methoxyethoxy)benzene]
Low potential event vs. Li+/0 [2]: 4.0 V | High potential event vs. Li+/0 [2]: 4.7 V and 4.7^(a) V | solubility at 1 h [3]: ~180 mM (≈ 60.9 mg/mL) | stability of neutral compound by UV-vis [5]: neither compound showed measurable signs of change

CCN1c2ccc(Br)cc2Sc2cc(Br)ccc21 [DBrEPT]
Solubility [4]: 100 mM (≈ 38.5 mg/mL) | Stability [1]: high

CCN1c2ccc(C#N)cc2Sc2cc(C#N)ccc21 [DCNEPT]
Solubility [4]: low | Stability [1]: high

CCN1c2ccc(Cl)cc2Sc2cc(Cl)ccc21 [DClEPT]
Solubility [4]: 100 mM (≈ 29.6 mg/mL) | Stability [1]: High

CCN1c2ccc([N+](=O)[O-])cc2Sc2cc([N+](=O)[O-])ccc21 [DNO2EPT]
Solubility [4]: Low

CCN1c2ccccc2Sc2ccccc21 [EPT]
Solubility [4, 7]: 100 mM (≈ 22.7 mg/mL) | Stability [1]: High

CN1c2ccccc2Sc2ccccc21 [MPT]
Solubility [4]: 100 mM (≈ 21.3 mg/mL) | Stability [1]: high

c1ccc2c(c1)Nc1ccccc1S2 [PT]
Solubility [4]: 100 mM (≈ 19.9 mg/mL) | Stability [1]: Low

Cc1ccc2nc(C)c(C)nc2c1 [TMeQ, 2,3,6-trimethyl quinoxaline]
Low potential event vs. Li+/0 [2]: 2.5 V | High potential event vs. Li+/0 [2]: 2.8 V | solubility at 1 h [3]: ~370 mM (≈ 63.7 mg/mL)
